Experiment: log P by HPLC on a reversed-phase column (C 18), EEC Directive 79/831 Annex V.A8
Type: physicochemical
Settings: 0.1% aqueous formic acid and acetonitrile; for logP: 40° C., linear gradient 10% to 90% acetonitrile; for chromatographic logP: Table 3 (amines of formula II), HPLC C 18, 40° C.
Method: In table 1, the log P values were determined in accordance with EEC Directive 79/831 Annex V.A8 by HPLC (High Performance Liquid Chromatography) on a reversed-phase column (C 18), using the method described below:
Temperature: 40° C.; Mobile phases: 0.1% aqueous formic acid and acetonitrile; linear gradient from 10% acetonitrile to 90% acetonitrile.
Calibration was carried out using unbranched alkan-2-ones (comprising 3 to 16 carbon atoms) with known log P values (determination of the log P values by the retention times using linear interpolation between two successive alkanones). lambda-max-values were determined using UV-spectra from 200 nm to 400 nm and the peak values of the chromatographic signals.

[1] = HPLC, reversed-phase column (C 18)
[2] = HPLC on reversed-phase column (C 18)
[3] = reversed-phase HPLC column (C 18)

Structure (SMILES)	chromatographic logP [3]	also measured
Cn1nc(C(F)F)c(C(=O)N(Cc2ccc(F)cc2C2(C(F)F)CC2)C2CC2)c1F [I.144]	–	logP [1]: 3.41
Cn1nc(C(F)F)c(C(=O)N(Cc2ccc(F)cc2C2(C(F)F)CC2)C2CC2)c1Cl [I.145]	–	logP [1]: 3.55
Cn1nc(C(F)F)c(C(=O)N(Cc2cc(Br)ccc2C2(C(F)F)CC2)C2CC2)c1F [I.146]	–	logP [1]: 3.76
Cn1nc(C(F)F)c(C(=O)N(Cc2cc(Br)ccc2C2(C(F)F)CC2)C2CC2)c1Cl [I.147]	–	logP [1]: 3.92
Cn1nc(C(F)F)c(C(=O)N(Cc2cc(Cl)ccc2C2(C(F)F)CC2)C2CC2)c1Cl [I.148]	–	logP [1]: 3.85
Cn1nc(C(F)F)c(C(=O)N(Cc2cc(Cl)ccc2C2(C(F)F)CC2)C2CC2)c1F [I.149]	–	logP [1]: 3.70
Cn1nc(C(F)F)c(C(=O)N(Cc2cc(C3CC3)ccc2C2(C(F)F)CC2)C2CC2)c1F [I.150]	–	logP [1]: 3.94
Cn1nc(C(F)F)c(C(=O)N(Cc2cc(F)ccc2C2(C(F)F)CC2)C2CC2)c1Cl [I.152]	–	logP [1]: 3.53
Cc1ccc(C2(C(F)F)CC2)c(CN(C(=O)c2c(C(F)F)nn(C)c2F)C2CC2)c1 [I.153]	–	logP [1]: 3.64
Cc1ccc(C2(C(F)F)CC2)c(CN(C(=O)c2c(C(F)F)nn(C)c2Cl)C2CC2)c1 [I.154]	–	logP [1]: 3.76
Cn1nc(C(F)F)c(C(=O)N(Cc2c(Br)cccc2C2(C(F)F)CC2)C2CC2)c1F [I.155]	–	logP [1]: 3.76
Cn1nc(C(F)F)c(C(=O)N(Cc2c(Br)cccc2C2(C(F)F)CC2)C2CC2)c1Cl [I.156]	–	logP [1]: 3.87
CC(C)CC1(c2cc(Cl)ccc2CN(C(=O)c2c(C(F)F)nn(C)c2F)C2CC2)CC1 [I.157]	–	logP [1]: 5.42
CC(C)CC1(c2cc(Cl)ccc2CN(C(=O)c2c(C(F)F)nn(C)c2Cl)C2CC2)CC1 [I.158]	–	logP [2]: 5.59
Cc1ccc(C2(CC(C)C)CC2)c(CN(C(=O)c2c(C(F)F)nn(C)c2F)C2CC2)c1 [I.159]	–	logP [2]: 5.36
Cc1ccc(C2(CC(C)C)CC2)c(CN(C(=O)c2c(C(F)F)nn(C)c2Cl)C2CC2)c1 [I.160]	–	logP [2]: 5.54
Cn1nc(C(F)F)c(C(=O)N(Cc2ccccc2C2(C(F)(F)F)CC2)C2CC2)c1F [I.161]	–	logP [2]: 2.34
Cn1nc(C(F)F)c(C(=O)N(Cc2ccccc2C2(C(F)(F)F)CC2)C2CC2)c1Cl [I.162]	–	logP [2]: 3.87
Cn1nc(C(F)F)c(C(=O)N(Cc2cc(Cl)ccc2C2(C(F)(F)F)CC2)C2CC2)c1F [I.163]	–	logP [2]: 4.13
Cn1nc(C(F)F)c(C(=O)N(Cc2cc(Cl)ccc2C2(C(F)(F)F)CC2)C2CC2)c1Cl [I.164]	–	logP [2]: 4.30
Cn1nc(C(F)F)c(C(=O)N(Cc2cc(F)ccc2C2(C(F)(F)F)CC2)C2CC2)c1F [I.165]	–	logP [2]: 3.83
Cn1nc(C(F)F)c(C(=O)N(Cc2cc(F)ccc2C2(C(F)(F)F)CC2)C2CC2)c1Cl [I.166]	–	logP [2]: 3.96
Cc1ccc(C2(C(F)(F)F)CC2)c(CN(C(=O)c2c(C(F)F)nn(C)c2F)C2CC2)c1 [I.167]	–	logP [2]: 4.11
Cn1nc(C(F)F)c(C(=O)N(Cc2cc(Cl)c(Cl)cc2C2(C)CC2)C2CC2)c1F [I.180]	–	logP [2]: 4.73
Cn1nc(C(F)F)c(C(=O)N(Cc2cc(Cl)c(Cl)cc2C2(C)CC2)C2CC2)c1Cl [I.181]	–	logP [2]: 4.93
COCC1(c2ccc(C)cc2CN(C(=O)c2c(C(F)F)nn(C)c2F)C2CC2)CC1 [I.182]	–	logP [2]: 3.52
COCC1(c2ccc(C)cc2CN(C(=O)c2c(C(F)F)nn(C)c2Cl)C2CC2)CC1 [I.183]	–	logP [2]: 3.68
CC1(c2ccccc2CNC2CC2)CC1 [II.01, N-[2-(1-methylcyclopropyl)benzyl]cyclopropanamine]	1.1	–
C[Si](C)(C)C#CC1(c2ccc(Cl)cc2CNC2CC2)CC1 [II.18, N-(5-chloro-2-{1-[(trimethylsilyl)ethynyl]cyclopropyl}benzyl)cyclopropanamine]	–	chromatographic logP: 2.07
Cc1ccc(C2(C#C[Si](C)(C)C)CC2)c(CNC2CC2)c1 [II.19, N-(5-methyl-2-{1-[(trimethylsilyl)ethynyl]cyclopropyl}benzyl)cyclopropanamine]	–	chromatographic logP: 2.05

Second part, led by results:

chromatographic logP [3]	Structure (SMILES)	also measured
1.36	CC1(c2c(F)cccc2CNC2CC2)CC1 [II.02, N-[3-fluoro-2-(1-methylcyclopropyl)benzyl]cyclopropanamine]	–
1.43	CC1(c2c(CNC3CC3)ccc3c2OCO3)CC1 [II.03, N-{[4-(1-methylcyclopropyl)-1,3-benzodioxol-5-yl]methyl}cyclopropanamine]	–
1.54	CC1(c2cc(Cl)ccc2CNC2CC2)CC1 [II.04, N-[4-chloro-2-(1-methylcyclopropyl)benzyl]cyclopropanamine]	–
1.43	Cc1ccc(CNC2CC2)c(C2(C)CC2)c1 [II.05, N-[4-methyl-2-(1-methylcyclopropyl)benzyl]cyclopropanamine]	–
1.68	Cc1cc(CNC2CC2)c(C2(C)CC2)cc1C [II.06, N-[4,5-dimethyl-2-(1-methylcyclopropyl)benzyl]cyclopropanamine]	–
1.79	CC1(c2cc(Cl)c(Cl)cc2CNC2CC2)CC1 [II.07, N-[4,5-dichloro-2-(1-methylcyclopropyl)benzyl]cyclopropanamine]	–
1.26	COc1cc(CNC2CC2)c(C2(C)CC2)cc1OC [II.08, N-[4,5-dimethoxy-2-(1-methylcyclopropyl)benzyl]cyclopropanamine]	–
1.43	CC1(c2ccc(Br)cc2CNC2CC2)CC1 [II.09, N-[5-bromo-2-(1-methylcyclopropyl)benzyl]cyclopropanamine]	–
1.7	CC1(c2ccc(Cl)cc2CNC2CC2)CC1 [II.10, N-[5-chloro-2-(1-methylcyclopropyl)benzyl]cyclopropanamine]	–
1.37	CC1(c2ccc(F)cc2CNC2CC2)CC1 [II.11, N-[5-fluoro-2-(1-methylcyclopropyl)benzyl]cyclopropanamine]	–
1.38	Cc1ccc(C2(C)CC2)c(CNC2CC2)c1 [II.12, N-[5-methyl-2-(1-methylcyclopropyl)benzyl]cyclopropanamine]	–
1.45	Cc1ccc(C2(C)CC2)c(CNC2(C)CC2)c1 [II.13, 1-methyl-N-[5-methyl-2-(1-methylcyclopropyl)benzyl]cyclopropanamine]	–
4.07	Cc1ccc(C2(C)CC2)c(CNC2(C#N)CC2)c1 [II.14, 1-{[5-methyl-2-(1-methylcyclopropyl)benzyl]amino}cyclopropanecarbonitrile]	–
1.22	C#CC1(c2ccc(Cl)cc2CNC2CC2)CC1 [II.16, N-[5-chloro-2-(1-ethynylcyclopropyl)benzyl]cyclopropanamine]	–
1.15	C#CC1(c2ccc(C)cc2CNC2CC2)CC1 [II.17, N-[2-(1-ethynylcyclopropyl)-5-methylbenzyl]cyclopropanamine]	–
0.77	N#CC1(c2ccc(Cl)cc2CNC2CC2)CC1 [II.20, 1-{4-chloro-2-[(cyclopropylamino)methyl]phenyl}cyclopropanecarbonitrile]	–
1.19	Cc1ccc(C2(C#N)CC2)c(CNC2CC2)c1 [II.21, 1-{2-[(cyclopropylamino)methyl]-4-methylphenyl}cyclopropanecarbonitrile]	–
1.49	COCC1(c2ccc(C)cc2CNC2CC2)CC1 [II.22, N-{2-[1-(methoxymethyl)cyclopropyl]-5-methylbenzyl}cyclopropanamine]	–
1.52	CCC1(c2ccccc2CNC2CC2)CC1 [II.23, N-[2-(1-ethylcyclopropyl)benzyl]cyclopropanamine]	–
1.95	CCC1(c2cc(C(F)(F)F)ccc2CNC2CC2)CC1 [II.24, N-[2-(1-ethylcyclopropyl)-4-(trifluoromethyl)benzyl]cyclopropanamine]	–
1.65	CCC1(c2cc(Cl)ccc2CNC2CC2)CC1 [II.25, N-[4-chloro-2-(1-ethylcyclopropyl)benzyl]cyclopropanamine]	–
1.47	CCC1(c2cc(C)ccc2CNC2CC2)CC1 [II.26, N-[2-(1-ethylcyclopropyl)-4-methylbenzyl]cyclopropanamine]	–
1.69	CCC1(c2cc(C)c(F)cc2CNC2CC2)CC1 [II.27, N-[2-(1-ethylcyclopropyl)-5-fluoro-4-methylbenzyl]cyclopropanamine]	–
1.82	CCC1(c2ccc(C(F)(F)F)cc2CNC2CC2)CC1 [II.28, N-[2-(1-ethylcyclopropyl)-5-(trifluoromethyl)benzyl]cyclopropanamine]	–
1.66	CCC1(c2ccc(Cl)cc2CNC2CC2)CC1 [II.29, N-[5-chloro-2-(1-ethylcyclopropyl)benzyl]cyclopropanamine]	–
1.63	CCC1(c2ccc(C)cc2CNC2CC2)CC1 [II.30, N-[2-(1-ethylcyclopropyl)-5-methylbenzyl]cyclopropanamine]	–
1.14	CCC1(c2cccc(F)c2CNC2CC2)CC1 [II.31, N-[2-(1-ethylcyclopropyl)-6-fluorobenzyl]cyclopropanamine]	–
1.81	CCCC1(c2ccc(C)cc2CNC2CC2)CC1 [II.33, N-[5-methyl-2-(1-propylcyclopropyl)benzyl]cyclopropanamine]	–
1.34	Cc1ccc(C2(Cl)CC2)c(CNC2CC2)c1 [II.34, N-[2-(1-chlorocyclopropyl)-5-methylbenzyl]cyclopropanamine]	–
1.67	Cc1ccc(C2(C3CC3)CC2)c(CNC2CC2)c1 [II.35, N-{2-[1,1′-bi(cyclopropyl)-1-yl]-5-methylbenzyl}cyclopropanamine]	–

Reference: patent US10070645B2, “N-cycloalkyl-N-{[2-(1-substitutedcycloalkyl)phenyl]methylene}-(thio)carboxamide derivatives” (BAYER CROPSCIENCE AKTIENGESELLSCHAFT, priority 2013, dated 2018)
